The target in the experiment is Mcl-1-Bak-BH3 complex (Homo sapiens, UniProt Q07820). The experiment is described as follows: Antagonism of the Mcl-1-Bak-BH3 complex (preliminary studies). In kind it is binding. To be noted: read-out: IC50 for antagonizing the Mcl-1-Bak-BH3 complex.
Mcl-1-Bak-BH3 complex, sequence (Q07820 172-327 limits assumed, one chain of several): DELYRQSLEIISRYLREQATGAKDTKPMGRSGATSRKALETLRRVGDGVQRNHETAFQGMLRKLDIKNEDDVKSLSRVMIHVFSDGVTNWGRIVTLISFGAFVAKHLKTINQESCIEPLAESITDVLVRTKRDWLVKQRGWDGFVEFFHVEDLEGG

Broadly, the IC50 is the concentration that gives 50% inhibition. For the compound `CC(C)COc1ccc(C(=O)NCCN)c(C#Cc2cc(OCc3ccccc3)ccc2NC(=O)C(=O)O)c1OCC(C)C` [Compound 14, 2-((2-((6-((2-Aminoethyl)carbamoyl)-2,3-diisobutoxyphenyl)ethynyl)-4-(benzyloxy)phenyl)amino)-2-oxoacetic acid], the IC50 amounted to 3.24 ± 0.48 µM.

The record behind these values is patent US8901164B2, “Amphipathic and other double-sided alpha-helix mimetics based on a 1,2-diphenylacetylene scaffold” (University of Maryland, Baltimore, priority 2013, dated 2014).
